According to patent US10597696B2, “Detection of Niemann-Pick disease comprising detection of lysozyme and cathepsins” (UNIVERSITY OF NOTRE DAME DU LAC, priority 2013, dated 2020):
“Also recorded” adds a separate entry of the source.

What was measured:
[1] = system: Npc1^nih Npc1^−/− mouse liver; assay: Immunohistochemistry of liver sections after HPβCD; assay type: in vivo
Procedure: Mice were sacrificed by asphyxiation using CO2. The circulatory bed was washed with PBS (pH 7.4), and subsequently perfused with 10% neutral buffered formalin (˜4% formaldehyde). The organs (brain and liver) were surgically harvested and stored in 4% formaldehyde at room temperature (RT) until transfer to paraffin. Paraffin-embedded tissue sections (3-4 μm) were dewaxed in xylene and alcohol. For Ly-6G and calbindin staining, antigen retrieval was done by pre-incubating deparaffinized samples with 0.05% proteinase K (Dako, Germany) in 50 mM Tris-HCl (pH 7.5) for 8 min at RT. CTSS and lysozyme were retrieved by boiling the sections in acidic condition for 30 min. Sections were incubated with anti-Ly-6G (20 μg/ml), anti-calbindin (1:1000), anti-CTSS (20 μg/ml) or anti-lysozyme (1:20) overnight at 4° C. Reagents were prepared according to the manufacturer's instructions (Vector laboratories). The staining protocol was followed as described previously (19). The secondary antibody for neutrophil staining was biotinylated rabbit anti-rat IgG (mouse absorbed, Vector Laboratories) and for Purkinje neurons was biotinylated horse anti-mouse IgG (Vector Laboratories).
For fluorescence microscopy, FITC-conjugated IgG (MP Biomedicals, Solon, Ohio, USA) was the secondary antibody. Sections stained only with secondary antibodies served as controls. Brightfield images were acquired on a Nikon Olympus microscope, using a Nikon digital DS-Fi1-U2 camera controlled by NIS-Elements F3.0 Nikon software (all from Nikon Instruments INC, Tokyo, Japan). Images were visualized with A10 PL 10×/0.25, or a DPIan Apo 40×/1.00 oil-immersion or a DPIan Apo 100×/1.30 oil-immersion objective lens (Nikon). Fluorescence microscopy and digital image collection were performed using an Olympus IX inverted fluorescence microscope and a Photometrix cooled CCD camera (CH350/LCCD) driven by DeltaVision software from Applied Precision (Seattle, Wash., USA). DeltaVision software (softWoRx) was used to deconvolve these images. Images were visualized with 40× oil-immersion objective lens and are single optical sections. ImageJ (National Institute of Health, Bethesda, Md., USA) software was used to process and quantify the fluorescence intensity of CTSS and lysozyme.
Starting at P21 and once a week thereafter, Npc1^nih and Npc1^nmf164 mice were injected i.p with 20% 2-hydroxypropyl-beta-cyclodextrin (HPβCD, 4000 mg/Kg) prepared in 0.2% DMSO and 0.9% saline. Control mice received 0.2% DMSO in 0.9% saline. Blood was collected either via cheek bleed or terminal heart bleed from mice in EDTA tubes (BD Biosciences, San Jose, Calif., USA). Plasma was separated by centrifugation at 2500 rpm for 15 min and stored at −70° C. until used.

[2] = system: Npc1^nih mice; settings: cited from earlier work
[3] = system: Npc1^pf/pf mice; settings: weekly injections to Npc1^pf/pf mice, previous study; cited from earlier work

With `CC(O)COC[C@H]1O[C@@H]2O[C@H]3[C@H](O)[C@@H](O)[C@@H](O[C@H]4[C@H](O)[C@@H](O)[C@@H](O[C@H]5[C@H](O)[C@@H](O)[C@@H](O[C@H]6[C@H](O)[C@@H](O)[C@@H](O[C@H]7[C@H](O)[C@@H](O)[C@@H](O[C@H]8[C@H](O)[C@@H](O)[C@@H](O[C@H]1[C@H](O)[C@H]2O)O[C@@H]8COCC(C)O)O[C@@H]7COCC(C)O)O[C@@H]6COCC(C)O)O[C@@H]5COCC(C)O)O[C@@H]4COCC(C)O)O[C@@H]3COCC(C)O` (stereo partly drawn) [HPβCD, 2-hydroxypropyl-beta-cyclodextrin] the “CTSS accumulation in liver” value ([1]; Npc1^−/− mice, anti-CTSS IHC) was “dramatically reduced”, the “accumulation of foamy macrophages in liver” value ([1]; Npc1^−/− mice, anti-CTSS IHC) was “eliminated accumulation of foamy macrophages; also recorded: eliminated the foamy macrophages and CTSS staining” and the “neutrophil clusters in liver” value ([1]; Npc1^−/− mice, anti-Ly-6G IHC, 50 and 80 days) was “reduced neutrophil clusters; also recorded: barely detected”. For the same compound, the “macrophages containing lysozyme in liver” value ([1]; Npc1^−/− mice, anti-lysozyme staining) was “largely eliminated”, the hepatocyte architecture ([1]; animals treated with HPβCD, histochemistry) was “decreased cytoplasmic staining with slight irregular plasma membrane” and the “Lgals3 and Ctsd transcripts” value ([2]; Npc1^−/− mice, Cluzeau et al., 2012) was “reduced”. For the same compound, the disease and survival ([2]; weekly injections to Npc1^nih, previous studies) was “ameliorates the disease and extend the survival; also recorded: reduce disease and extend the survival” and the disease status [3] was “improvement in disease status”.
